Laboratory results reported in US20200038474A1, “COMPOSITION, USE AND METHOD FOR TREATING NEURODEGENERATIVE DISEASES” (FUNDAÇÃO BUTANTAN, priority 2016, published 2020).

Key:
[1] = system: Experimental Autoimmune Encephalomyelitis; assay: Experimental Autoimmune Encephalomyelitis (EAE) induced by MOG35-55, clinical signs scored 0 to 5; type: in vivo, female C57BL/6 mice
κ opioid receptor = conditions: literature report; cited from earlier work

EFSPENCQGESQPC [Crotalphine]
animals that reached clinical score 2 ([1]; single dose of 50 μg/kg on the 5th day after immunization, 100% of saline controls reached a score between 3 and 5): 43%
severity of clinical signs ([1]; single dose of 50 μg/kg on the 5th day after immunization, vs saline control, n=8, p<0.05): significantly decreased the severity of clinical signs
motor impairment in animal model of multiple sclerosis ([1]; summary statement): partially reverse the motor impairment
antinociception (κ opioid receptor): induces antinociception mediated by κ opioid receptor activation
